Converted amounts (≈) assume the structure as drawn.
Experiments:
P. aeruginosa PBP3 = biological target: T1, P. aeruginosa PBP3 (Pseudomonas aeruginosa, UniProt G3XD46); experiment: Bocillin-FL fluorescence polarization competition binding assay, P. aeruginosa PBP3; conditions: P. aeruginosa PBP3; assay validation with beta-lactams; read-out: EC50 (concentration of beta-lactam required to reduce the amount of PBP bound-Bocillin-FL by 50%)
T1 construct: made in house
From the text: Example I: Experimental Method for Penicillin-Binding Protein Binding Assays with Bocillin-FL Via Fluorescence Polarization
To determine the ability of boronic acid-based test PBP inhibitors to bind Penicillin Binding Proteins (PBPs), Bocillin-FL (fluorescently-labeled penicillin V; ThermoFisher Scientific) was used in a fluorescence polarization (FP) competition binding assay to assess inhibitor binding to PBP2, PBP3 or PBP4 from Escherichia coli (K12), PBP3 from Pseudomonas aeruginosa (PA01), PBP1a, PBP2 and PBP3 from Acinetobacter baumannii (ATCC 19606), and PBP2 from Neiserria gonorrheae (FA19). PBPs were cloned and purified as described previously (E. coli PBPs, King, D. T, et al., ACS Infectious Diseases 2015, 1, 175-184; P. aeruginosa PBP3, Han et. al., PNAS 2010, 107 (51), 22002-22007; A. baumannii PBPs, Penwell et. al., Antimicrob. Agents Chemother. 2015, 59 (3), 1680-1689; N. gonorrhoeae PBP2, Singh et. al., J Biol. Chem. 2019, 294 (38), 14020-14032). To establish assay conditions for competition binding, enzyme titration/saturation binding experiments were initially performed. Bocillin-FL was prepared at 0.2 μM in a buffer comprised of 50 mM Hepes (pH 8.0), 300 mM NaCl and 5% (v/v) glycerol for reactions with E. coli, P. aeruginosa and N. gonorrhoeae PBPs, and 25 mM Tris (pH 8.0), 200 mM NaCl and 10% (v/v) glycerol and 0.005% (v/v) Tween 20 for reactions with A. baumannii PBPs. Saturation binding was performed by mixing 40 μl of PBP solutions ranging in concentrations from 0-24 μM with 40 μl of the 0.2 μM Bocillin-FL solution, in individual wells of a black 384-well microplate. FP was measured immediately upon mixing (Excitation, 490 nm; Emission, 520 nm; g-factor, 0.96), using a Cytation3 (BioTek) microplate reader and measured continuously for up to 120 minutes. […] The competition binding assay (80 μl final volume) was validated using beta-lactams and PBPs at final concentrations of: 1.5 μM, E. coli PBP3; 0.75 μM, P. aeruginosa PBP3; 1 μM A. baumannii PBP1a; 2.5 μM A. baumannii PBP2; 0.2 μM A. baumannii PBP3; and […] N. gonorrhoeae PBP2. Bocillin-FL was at 0.1 μM (0.05 μM with A. baumannii PBP1a) and beta-lactam concentrations ranged from 0-1000 μM. […] Bocillin-FL was added and the FP immediately measured for up to 60 minutes (90 minutes for E. coli PBP2). […] The beta-lactam potency was reported as the concentration of beta-lactam required to reduce the amount of PBP bound-Bocillin-FL by 50% (EC50). […] Binding assays for boronic acid PBP inhibitors were performed in an identical fashion for the respective PBPs

[1] = test system: P. aeruginosa (ΔmexAB-oprM); experiment: Broth microdilution MIC in CAMHB; type: cell-based; conditions: Pseudomonas aeruginosa, read-out: Minimum Inhibitory Concentration, P. aeruginosa ΔmexAB-OprM
Protocol: (§1) Example III: In Vitro Antibacterial Assays
(§2) To determine the ability of test compounds to inhibit the growth of bacterial strains, classic cell based broth microdilution minimum inhibitory concentration (MIC) assays were employed. MIC assays are performed according to CLSI methods except where otherwise noted (CLSI, 2018 and CLSI, 2019). The reference type strain E. coli ATCC 25922; the wild-type parent strain E. coli AG100; the hyper-permeable E. coli 901C and E. coli D22; and the E. coli AG100A strain lacking the acrAB efflux pump encoding genes were used to determine the ability of the PBP inhibitors to penetrate the outer membrane of gram-negative bacteria and inhibit bacterial growth. […] The P. aeruginosa ATCC 27853 and A. baumannii ATCC 19606, along with the hyper-permeable P. aeruginosa ATCC 35151 and an engineered efflux pump-compromised strain of P. aeruginosa (ΔmexAB-oprM) were used to determine the ability of PBP inhibitors to penetrate the outer membrane of P. aeruginosa and A. baumannii and assess antibacterial activity against these important gram-negative organisms.
(§3) Briefly, cryo-preserved bacterial cultures of challenge strains are streaked for isolation on appropriate agar medium, in this case cation-adjusted Mueller Hinton agar. Following incubation to allow growth of the colonies, plates are sealed with parafilm and stored refrigerated for up to two weeks. For preparation of assay inoculum and to ensure low variability, at least 5 colonies are picked from the agar plates with an inoculating loop and aseptically transferred to a culture tube containing 3 mL of cation-adjusted Mueller Hinton broth (CAMHB). The broth culture is grown for 3-5 hours at 37° C. with shaking at 200 rpm. Meanwhile, 2-fold serial dilutions of test compounds are conducted in a 96-well plate with a final volume of 75 μL per well at 2-fold the final desired concentration. After the dilution plates are set up the growing cultures are then diluted in a cuvette containing CAMHB and the optical density is measured at 600 nm. The inoculum is diluted such that 75 μL of this culture in CAMHB results in a starting bacterial concentration of 2-8×10^5 CFU/mL when added to the dilution plates. The plates are incubated for 16-20 hours for Enterobacteriaceae and Pseudomonas and 20-24 hours for Acinetobacter at 37° C. The MIC values are read visually as the lowest concentration well with no bacterial growth.

A. baumannii ATCC 19606 = experiment: Broth microdilution MIC in CAMHB; type: cell-based; conditions: Acinetobacter baumannii, ATCC19606; MHB; read-out: Minimum Inhibitory Concentration, A. baumannii ATCC 19606
Protocol: as §1, §2, §3

[2] = test system: K. pneumoniae 848844 producing SHV-11 and KPC-2; experiment: Broth microdilution MIC in CAMHB; type: cell-based; conditions: Klebsiella pneumoniae, read-out: Minimum Inhibitory Concentration, K. pneumoniae 848844
Protocol: as §1, §2, §3

[3] = test system: K. pneumoniae UMM producing SHV-5 and KPC-2; experiment: Broth microdilution MIC in CAMHB; type: cell-based; conditions: Klebsiella pneumoniae, read-out: Minimum Inhibitory Concentration, K. pneumoniae UMM
Protocol: as §1, §2, §3

[4] = test system: K. pneumoniae SI-117 producing VIM-1; experiment: Broth microdilution MIC in CAMHB; type: cell-based; conditions: Klebsiella pneumoniae, read-out: Minimum Inhibitory Concentration, K. pneumoniae SI-117
Protocol: as §1, §2, §3

E. coli 901C = experiment: Broth microdilution MIC in CAMHB; type: cell-based; conditions: Escherichia coli; MHB; hyper-permeable E. coli 901C; read-out: Minimum Inhibitory Concentration, E. coli 901C
Protocol: as §1, §2, §3

E. coli ATCC 25922 = experiment: Broth microdilution MIC in CAMHB; type: cell-based; conditions: Escherichia coli, ATCC25922; MHB; E. coli ATCC 25922; read-out: Minimum Inhibitory Concentration, E. coli 25922
Protocol: as §1, §2, §3

P. aeruginosa ATCC 27853 = experiment: Broth microdilution MIC in CAMHB; type: cell-based; conditions: Pseudomonas aeruginosa, ATCC27853; MHB; read-out: Minimum Inhibitory Concentration, P. aeruginosa ATCC 27853
Protocol: as §1, §2, §3

E. coli D22 = experiment: Broth microdilution MIC in CAMHB; type: cell-based; conditions: Escherichia coli; MHB; hyper-permeable E. coli D22; read-out: Minimum Inhibitory Concentration, E. coli D22
Protocol: as §1, §2, §3

E. coli AG100A = experiment: Broth microdilution MIC in CAMHB; type: cell-based; conditions: Escherichia coli, read-out: Minimum Inhibitory Concentration, E. coli AG100A
Protocol: as §1, §2, §3

P. aeruginosa ATCC 35151 = experiment: Broth microdilution MIC in CAMHB; type: cell-based; conditions: Pseudomonas aeruginosa, ATCC35151; MHB; hyper-permeable strain; read-out: Minimum Inhibitory Concentration, P. aeruginosa ATCC 35151
Protocol: as §1, §2, §3

E. coli AG100 = experiment: Broth microdilution MIC in CAMHB; type: cell-based; conditions: Escherichia coli; MHB; wild-type parent strain E. coli AG100; read-out: Minimum Inhibitory Concentration, E. coli AG100
Protocol: as §1, §2, §3

T1 sequence (G3XD46 whole entry): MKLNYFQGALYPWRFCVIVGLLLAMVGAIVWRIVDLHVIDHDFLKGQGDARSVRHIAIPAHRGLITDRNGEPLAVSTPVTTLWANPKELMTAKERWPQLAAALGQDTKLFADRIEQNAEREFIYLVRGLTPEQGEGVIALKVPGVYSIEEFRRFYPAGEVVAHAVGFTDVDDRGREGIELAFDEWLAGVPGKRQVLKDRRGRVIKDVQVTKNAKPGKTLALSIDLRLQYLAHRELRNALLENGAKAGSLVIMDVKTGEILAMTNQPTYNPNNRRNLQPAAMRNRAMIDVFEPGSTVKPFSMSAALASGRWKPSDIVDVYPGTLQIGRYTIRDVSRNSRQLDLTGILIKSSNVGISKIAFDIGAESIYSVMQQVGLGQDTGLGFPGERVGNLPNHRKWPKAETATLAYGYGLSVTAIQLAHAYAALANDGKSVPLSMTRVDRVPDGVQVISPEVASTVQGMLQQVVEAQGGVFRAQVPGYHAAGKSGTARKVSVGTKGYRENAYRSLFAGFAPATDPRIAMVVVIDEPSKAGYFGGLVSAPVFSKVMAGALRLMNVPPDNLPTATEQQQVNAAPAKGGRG

C[C@H]1[C@H](NC(=O)/C(=N\OC(C)(C)C(=O)O)c2csc(N)n2)C(=O)N1S(=O)(=O)O [aztreonam, reference compound]
EC50 (P. aeruginosa PBP3): < 500 nM

NC1(CN2CCN(C(=O)N[C@@H](C(=O)N[C@H]3Cc4cccc(C(=O)O)c4OB3O)c3cc(F)c(O)c(F)c3F)C(=O)C2=O)CC1 (single isomer, unassigned) [Example 244]
MIC [1]: 2 to 4 µg/mL (≈ 3.23 to 6.46 µM) | MIC (A. baumannii ATCC 19606): > 128 µg/mL | MIC [2]: 32 to 64 µg/mL (≈ 51.7 to 103 µM) | MIC [3]: < 0.25 µg/mL | MIC [4]: 2 to 4 µg/mL (≈ 3.23 to 6.46 µM) | MIC (E. coli 901C): > 128 µg/mL | MIC (E. coli ATCC 25922): 8 to 16 µg/mL (≈ 12.9 to 25.8 µM) | MIC (P. aeruginosa ATCC 27853): 32 to 64 µg/mL (≈ 51.7 to 103 µM) | MIC (E. coli D22): 32 to 64 µg/mL (≈ 51.7 to 103 µM) | MIC (E. coli AG100A): 32 to 64 µg/mL (≈ 51.7 to 103 µM) | MIC (P. aeruginosa ATCC 35151): < 0.25 µg/mL | MIC (E. coli AG100): > 128 µg/mL

CCN1CCN(C(=O)NC(C(=O)N[C@H]2Cc3cccc(C(=O)O)c3OB2O)c2ccc(P(=O)(O)O)cc2)C(=O)C1=O (stereo partly drawn) [Example 250, (3R)-3-(2-(4-ethyl-2,3-dioxopiperazine-1-carboxamido)-2-(4-phosphonophenyl)acetamido)-2-hydroxy-3,4-dihydro-2H-benzo[e][1,2]oxaborinine-8-carboxylic acid]
MIC [1]: 8 to 16 µg/mL (≈ 13.6 to 27.2 µM) | MIC (A. baumannii ATCC 19606): 32 to 64 µg/mL (≈ 54.4 to 109 µM) | MIC [2]: > 128 µg/mL | MIC [3]: < 0.25 µg/mL | MIC [4]: 2 to 4 µg/mL (≈ 3.4 to 6.8 µM) | MIC (E. coli 901C): > 128 µg/mL | MIC (E. coli ATCC 25922): 32 to 64 µg/mL (≈ 54.4 to 109 µM) | MIC (P. aeruginosa ATCC 27853): > 128 µg/mL | MIC (E. coli D22): 32 to 64 µg/mL (≈ 54.4 to 109 µM) | MIC (E. coli AG100A): > 128 µg/mL | MIC (P. aeruginosa ATCC 35151): 2 to 4 µg/mL (≈ 3.4 to 6.8 µM) | MIC (E. coli AG100): > 128 µg/mL

NCCCN1CCN(C(=O)N[C@H](C(=O)N[C@H]2Cc3cccc(C(=O)O)c3OB2O)c2cc(F)c(O)c(F)c2F)C(=O)C1=O (single isomer, unassigned) [Example 247]
MIC [1]: 2 to 4 µg/mL (≈ 3.29 to 6.59 µM) | MIC (A. baumannii ATCC 19606): > 128 µg/mL | MIC (P. aeruginosa ATCC 27853): 8 to 16 µg/mL (≈ 13.2 to 26.3 µM) | MIC (P. aeruginosa ATCC 35151): < 0.25 µg/mL

Source: US20230114728A1 (Venatorx Pharmaceuticals, Inc., priority 2019, published 2023)
